In patent US20180044734A1, “COMPOSITION FOR DIAGNOSING SKIN DAMAGE CAUSED BY FINE DUST, AND COMPOSITION COMPRISING GALANGIN AS ACTIVE INGREDIENT” (AMOREPACIFIC CORPORATION, priority 2015, published 2018):

Experiments:
[1] = test system: microdust-treated normal human keratinocytes; assay: Real-time RT-PCR of microdust-responsive genes in microdust-treated keratinocytes treated with galangin; type: cell-based; settings: microdust 2.5 μm 12.5 μg in 1 mL, galangin 0.25-2 μM, 24 hours
Procedure: The normal human keratinocytes cultured in Example 2 were treated 12.5 μg of the microdust with a particle diameter of 2.5 μm extracted in Example 1 in 1 mL of a cell culture medium and relative mRNA expression level was measured using the primers described in Tables 5 and 6 (TaqMan® primers, Applied Biosystems).
The microdust-treated normal human keratinocytes or the normal human keratinocytes cultured in Example 2 but not treated with microdust were treated with galangin at different concentrations (0.25 μM, 0.5 μM, 1 μM and 2 μM). 24 hours later, the culture medium was removed and the cells were washed with 2 mL of phosphate-buffered saline (PBS). Then, RNA was isolated from the cells using TRIzol reagent (Invitrogen, Carlsbad, Calif., USA). For S100A8, S100A9, CYP1A1, CYP1B1, PI3, IL36G, IL1B, CCL27, IL8, NOX6, XDH, CXCL14, H19, CASP14 and CASP8, expression level was measured after treating with 0.25 μM galangin. The galangin was purchased commercially from Nanjing Chemlin Chemical (CAS No. 548-83-4). The isolated RNA was purified once again with Qiagen RNA kit Qiagen, Valencia, Calif.) and the quality of RNA was determined using Agilent 2100 BioAnalyzer (Agilent Technologies, Santa Clara, Calif., USA). cDNA synthesized from the RNA using SuperScript reverse transcriptase (RT) kit (Invitrogen, Carlsbad, Calif.) was quantitatively analyzed by real time-reverse transcription polymerase chain reaction (Q-RT-PCR) using the primers described in Tables 5 and 6. The change in gene expression pattern was evaluated in real time using TaqMan gene expression assay kit (Applied Biosystems, Foster City, Calif.). The Q-RT-PCR and real-time PCR were conducted in accordance with the standard protocols of Life Technologies, specifically, 95° C. for 20 seconds followed by 40 cycles of 95° C. for 3 seconds and 60° C. for 30 seconds.

[2] = test system: filaggrin, keratin 10, keratin 1, keratin 13 and keratin 15 mRNA in normal human keratinocytes; assay: Real-time PCR of gene expression in normal keratinocytes upon treatment with galangin; type: cell-based; settings: cells not treated with microdust; galangin 0, 0.5, 1, 2 μM, 24 hours
Procedure: After treating the normal human keratinocytes cultured in Example 2 with galangin at different concentrations (0 μM, 0.5 μM, 1 μM and 2 μM), the relative mRNA expression level of filaggrin, keratin 10, keratin 1, keratin 13 and keratin 15 was measured.
24 hours after the treatment with galangin, the culture medium was removed and the cells were washed with 2 mL of phosphate-buffered saline (PBS). Then, RNA was isolated from the cells using TRIzol reagent (Invitrogen, Carlsbad, Calif., USA).
Subsequently, the change in gene expression was evaluated by real-time PCR in the same manner as in Example 5. For filaggrin, TaqMan® Hs00856927_g1 was used as the primer.

[3] = test system: normal human keratinocytes; assay: Differentiation of keratinocytes under optical microscope; type: cell-based; settings: cells not treated with microdust; galangin 0, 1, 2 μM, 24 hours
Procedure: The normal human keratinocytes cultured in Example 2 were treated with galangin at different concentrations (0 μM, 1 μM and 2 μM). 24 hours later, the culture medium was removed and the degree of differentiation of the keratinocytes was observed under an optical microscope (Olympus IX71, x40 and x200).

filaggrin protein = assay: Filaggrin protein expression by blotting with filaggrin antibody; type: cell-based, human; settings: galangin 0, 0.5, 1, 2 μM, 24 hours; normalized to β-actin
Procedure: The normal human keratinocytes cultured in Example 2 were treated with galangin at different concentrations (0 μM, 0.5 μM, 1 μM and 2 μM). 24 hours later, the culture medium was removed and the cells were washed with 2 mL of phosphate-buffered saline (PBS). After adding cell lysis buffer and vortexing, proteins were quantified from the obtained supernatant. The proteins obtained from the epidermis of normal skin and dry skin were loaded on SDS gel and then blotted using the filaggrin antibody (Covance, France). The quantification result was normalized to that of β-actin (Sigma, USA).

O=c1c(O)c(-c2ccccc2)oc2cc(O)cc(O)c12 [galangin]
expression of genes whose expression is increased in skin cells stimulated by microdust ([1]; FIGS. 2a-2k): decreased expression | expression of genes increased or decreased in skin cells stimulated by microdust ([1]; FIGS. 2 and 3): returned to the normal level | expression of genes whose expression is decreased in skin cells stimulated by microdust ([1]; FIGS. 3a-3k): increased expression | relative mRNA expression level of filaggrin [2]: increased expression with increasing galangin concentration | relative mRNA expression level of keratin 1 [2]: increased expression with increasing galangin concentration | relative mRNA expression level of keratin 10 [2]: increased expression with increasing galangin concentration | relative mRNA expression level of keratin 13 [2]: increased expression with increasing galangin concentration | relative mRNA expression level of keratin 15 [2]: increased expression with increasing galangin concentration | degree of differentiation of the keratinocytes [3]: active differentiation with increasing galangin concentration | expression of filaggrin protein (filaggrin protein): increased with increasing galangin concentration
